Source: ChEMBL document CHEMBL3886253, “Imidazolidinones and analogs exhibiting anti-cancer and anti-proliferative activities” (2015)

How the values were obtained:
[1] = target: Macrophage colony-stimulating factor 1 receptor (Homo sapiens, UniProt P07333); assay: Enzymatic Assay: Activity of unphosphorylated c-FMS kinase (uFMS, Seq. ID no. 1) was determined by following the production of ADP from the FMS kinase reaction with ATP and poly E4Y as substrates through coupling with the pyruvate kinase/lactate dehydrogenase system (e.g., Schindler et al. Science (2000) 289: 1938-1942). In this assay, the oxidation of NADH (thus the decrease at A340 nm) was continuously monitored spectrophometrically. The reaction mixture (100 µL) contained FMS (purchased from Millipore) (10 nM), polyE4Y (1 mg/mL), MgCl2 (10 mM), pyruvate kinase (4 units), lactate dehydrogenase (0.7 units), phosphoenol pyruvate (1 mM), NADH (0.28 mM) and ATP (500 µM) in 90 mM Tris buffer containing 0.2% octyl-glucoside and 1% DMSO, pH 7.5. The inhibition reaction was started by mixing serial diluted test compound with the above reaction mixture. The absorption at 340 nm was monitored continuously for 4 hours at 30° C. on Synergy 2 plate reader.
[2] = target: Hepatocyte growth factor receptor (Homo sapiens, UniProt P08581); assay: (§1) In Vitro Receptor Tyrosine Kinase Assay: These tests measure the ability of compounds to inhibit the enzymatic activity of recombinant human c-Met/HGF receptor and VEGF receptor enzymatic activity. A 1.3-kb cDNA corresponding to the intracellular domain of c-Met or c-Met IC (Genbank accession number NP000236-1 amino acid 1078 to 1337) is cloned into the BamHI/XhoI sites of the pBlueBacHis2A vector (Invitrogen) for the production of a histidine-tagged version of that enzyme. This construct is used to generate recombinant baculovirus using the Bac-N-Blue¿ system according to the manufacturer's instructions (Invitrogen). The c-Met IC protein is expressed in Hi-5 cells (Trichoplusia Ni) upon infection with recombinant baculovirus construct. Briefly, Hi-5 cells grown in suspension and maintained in serum-free medium (Sf900 II supplemented with gentamycin) at a cell density of about 2x10^6 cells/ml are infected with the above-mentioned viruses at a multiplicity of infection (MOI) of 0.2 during 72 hours at 27 C.
[3] = target: Vascular endothelial growth factor receptor 2 (Homo sapiens, UniProt P35968); assay: as §1
Sequence of Vascular endothelial growth factor receptor 2 (P35968 whole entry): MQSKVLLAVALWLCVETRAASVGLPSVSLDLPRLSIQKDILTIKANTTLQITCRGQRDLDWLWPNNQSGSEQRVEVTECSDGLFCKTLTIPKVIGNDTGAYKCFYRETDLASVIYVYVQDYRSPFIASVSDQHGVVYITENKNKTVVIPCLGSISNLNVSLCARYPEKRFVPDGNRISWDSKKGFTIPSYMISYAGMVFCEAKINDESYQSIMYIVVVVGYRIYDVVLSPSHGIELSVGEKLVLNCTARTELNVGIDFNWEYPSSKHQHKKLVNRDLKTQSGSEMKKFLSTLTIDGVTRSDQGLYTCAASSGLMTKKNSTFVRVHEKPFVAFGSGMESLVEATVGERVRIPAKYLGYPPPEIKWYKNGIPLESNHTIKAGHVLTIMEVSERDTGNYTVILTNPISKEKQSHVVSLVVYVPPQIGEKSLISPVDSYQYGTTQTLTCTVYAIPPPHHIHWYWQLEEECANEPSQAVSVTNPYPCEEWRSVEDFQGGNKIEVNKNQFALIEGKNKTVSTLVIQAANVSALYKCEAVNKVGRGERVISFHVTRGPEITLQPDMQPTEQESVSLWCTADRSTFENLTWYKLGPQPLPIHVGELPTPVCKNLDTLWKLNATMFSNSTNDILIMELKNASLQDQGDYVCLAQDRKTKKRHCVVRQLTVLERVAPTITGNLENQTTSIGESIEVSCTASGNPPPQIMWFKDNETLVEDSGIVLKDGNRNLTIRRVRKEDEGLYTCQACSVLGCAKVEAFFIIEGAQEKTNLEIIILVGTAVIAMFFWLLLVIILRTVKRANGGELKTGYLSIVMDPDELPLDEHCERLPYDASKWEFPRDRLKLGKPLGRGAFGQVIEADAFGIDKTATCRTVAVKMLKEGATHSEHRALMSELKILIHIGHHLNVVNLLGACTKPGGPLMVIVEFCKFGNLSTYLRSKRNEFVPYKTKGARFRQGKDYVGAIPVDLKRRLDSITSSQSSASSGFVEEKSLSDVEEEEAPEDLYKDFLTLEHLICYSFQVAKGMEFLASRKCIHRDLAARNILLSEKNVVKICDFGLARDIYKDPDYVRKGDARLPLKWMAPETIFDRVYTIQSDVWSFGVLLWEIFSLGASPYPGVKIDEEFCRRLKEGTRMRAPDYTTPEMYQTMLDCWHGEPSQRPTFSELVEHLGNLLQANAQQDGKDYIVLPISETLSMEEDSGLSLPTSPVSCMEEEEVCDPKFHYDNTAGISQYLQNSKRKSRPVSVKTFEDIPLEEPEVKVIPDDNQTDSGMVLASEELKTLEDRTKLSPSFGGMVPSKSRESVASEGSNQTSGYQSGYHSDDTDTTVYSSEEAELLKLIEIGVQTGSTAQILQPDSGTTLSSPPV

Sequence of Hepatocyte growth factor receptor (P08581 whole entry, the tested form may be a part): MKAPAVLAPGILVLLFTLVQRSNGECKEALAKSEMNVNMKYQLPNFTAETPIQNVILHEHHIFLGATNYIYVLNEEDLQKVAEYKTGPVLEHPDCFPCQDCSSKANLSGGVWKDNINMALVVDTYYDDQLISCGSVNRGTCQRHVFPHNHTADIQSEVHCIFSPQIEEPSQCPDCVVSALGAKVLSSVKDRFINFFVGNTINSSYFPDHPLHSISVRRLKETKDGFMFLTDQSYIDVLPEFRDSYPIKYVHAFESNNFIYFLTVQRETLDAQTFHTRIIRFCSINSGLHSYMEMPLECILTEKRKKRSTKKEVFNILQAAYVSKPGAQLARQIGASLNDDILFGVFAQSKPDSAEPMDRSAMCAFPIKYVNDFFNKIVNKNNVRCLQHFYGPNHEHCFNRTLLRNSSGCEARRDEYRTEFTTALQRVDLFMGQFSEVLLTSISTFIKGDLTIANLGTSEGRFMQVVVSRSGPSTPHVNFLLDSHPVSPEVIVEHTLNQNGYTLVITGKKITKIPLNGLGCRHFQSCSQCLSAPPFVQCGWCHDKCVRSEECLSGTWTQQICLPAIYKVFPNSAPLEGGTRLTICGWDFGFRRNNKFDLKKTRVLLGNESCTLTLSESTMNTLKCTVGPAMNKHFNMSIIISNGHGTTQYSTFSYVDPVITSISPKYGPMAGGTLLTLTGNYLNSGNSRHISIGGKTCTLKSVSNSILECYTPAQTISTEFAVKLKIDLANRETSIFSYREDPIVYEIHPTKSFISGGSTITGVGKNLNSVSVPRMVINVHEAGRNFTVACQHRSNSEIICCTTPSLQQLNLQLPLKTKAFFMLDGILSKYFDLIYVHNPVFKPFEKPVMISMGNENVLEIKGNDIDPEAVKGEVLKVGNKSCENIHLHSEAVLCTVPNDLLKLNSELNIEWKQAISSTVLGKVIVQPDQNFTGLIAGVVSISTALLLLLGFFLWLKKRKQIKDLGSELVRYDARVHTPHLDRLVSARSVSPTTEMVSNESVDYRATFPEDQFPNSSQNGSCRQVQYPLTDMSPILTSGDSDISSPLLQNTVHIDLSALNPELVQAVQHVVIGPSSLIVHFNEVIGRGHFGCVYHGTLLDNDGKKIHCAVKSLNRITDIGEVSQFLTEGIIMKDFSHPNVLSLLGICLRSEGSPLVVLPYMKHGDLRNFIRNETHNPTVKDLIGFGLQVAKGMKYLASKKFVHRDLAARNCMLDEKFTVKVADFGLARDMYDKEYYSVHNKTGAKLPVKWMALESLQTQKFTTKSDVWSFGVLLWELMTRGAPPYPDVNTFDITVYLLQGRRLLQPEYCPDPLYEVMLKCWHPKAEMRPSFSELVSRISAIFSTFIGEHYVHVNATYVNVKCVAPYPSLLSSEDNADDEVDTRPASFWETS
Sequence of Macrophage colony-stimulating factor 1 receptor (P07333 whole entry): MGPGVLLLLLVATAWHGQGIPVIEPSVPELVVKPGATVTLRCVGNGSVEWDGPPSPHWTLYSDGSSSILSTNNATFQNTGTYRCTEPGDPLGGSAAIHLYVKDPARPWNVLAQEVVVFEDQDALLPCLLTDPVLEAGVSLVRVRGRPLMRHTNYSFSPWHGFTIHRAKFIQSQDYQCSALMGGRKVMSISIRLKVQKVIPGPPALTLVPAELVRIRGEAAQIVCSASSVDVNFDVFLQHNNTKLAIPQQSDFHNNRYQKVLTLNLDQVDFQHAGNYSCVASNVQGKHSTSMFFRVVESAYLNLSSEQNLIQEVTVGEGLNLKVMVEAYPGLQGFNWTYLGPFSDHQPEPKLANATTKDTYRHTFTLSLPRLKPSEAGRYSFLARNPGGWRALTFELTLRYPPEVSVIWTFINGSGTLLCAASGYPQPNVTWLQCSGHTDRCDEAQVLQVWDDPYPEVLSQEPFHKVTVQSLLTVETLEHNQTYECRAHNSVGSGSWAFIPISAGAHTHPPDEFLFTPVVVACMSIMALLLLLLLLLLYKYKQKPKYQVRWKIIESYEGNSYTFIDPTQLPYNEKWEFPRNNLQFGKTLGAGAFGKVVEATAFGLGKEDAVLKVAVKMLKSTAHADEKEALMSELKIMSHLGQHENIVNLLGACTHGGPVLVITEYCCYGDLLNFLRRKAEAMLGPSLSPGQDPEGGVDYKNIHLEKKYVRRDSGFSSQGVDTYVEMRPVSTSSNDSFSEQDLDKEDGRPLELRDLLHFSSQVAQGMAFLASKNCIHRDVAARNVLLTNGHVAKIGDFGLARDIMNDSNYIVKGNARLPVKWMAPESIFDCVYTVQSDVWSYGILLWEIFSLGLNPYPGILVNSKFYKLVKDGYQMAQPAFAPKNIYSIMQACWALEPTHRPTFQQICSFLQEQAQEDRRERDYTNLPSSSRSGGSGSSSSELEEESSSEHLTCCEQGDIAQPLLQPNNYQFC

SMILES: Cn1cc(-c2cc(Oc3ccc(NC(=O)N4CCN(c5ccc(F)cc5)C4=O)nc3)ccn2)cn1
- IC50 [1]: 13 nM
- IC50 [2]: 196 nM
- IC50 [3]: 990 nM
